This is an account of results in patent publication US4456601A, “3-Chloro-pregnane derivatives and a process for the preparation thereof” (Richter Gedeon Vegyeszeti Gyar Rt., priority 1981, dated 1984).

Where two headings read alike, the source gives them in different places.

Experiment [1] has as its target T1, rat liver glucocorticoid receptors (Rattus norvegicus, UniProt P06536).
T1 construct: from tissue; host or cells: rat liver
T1 sequence (P06536 1-795): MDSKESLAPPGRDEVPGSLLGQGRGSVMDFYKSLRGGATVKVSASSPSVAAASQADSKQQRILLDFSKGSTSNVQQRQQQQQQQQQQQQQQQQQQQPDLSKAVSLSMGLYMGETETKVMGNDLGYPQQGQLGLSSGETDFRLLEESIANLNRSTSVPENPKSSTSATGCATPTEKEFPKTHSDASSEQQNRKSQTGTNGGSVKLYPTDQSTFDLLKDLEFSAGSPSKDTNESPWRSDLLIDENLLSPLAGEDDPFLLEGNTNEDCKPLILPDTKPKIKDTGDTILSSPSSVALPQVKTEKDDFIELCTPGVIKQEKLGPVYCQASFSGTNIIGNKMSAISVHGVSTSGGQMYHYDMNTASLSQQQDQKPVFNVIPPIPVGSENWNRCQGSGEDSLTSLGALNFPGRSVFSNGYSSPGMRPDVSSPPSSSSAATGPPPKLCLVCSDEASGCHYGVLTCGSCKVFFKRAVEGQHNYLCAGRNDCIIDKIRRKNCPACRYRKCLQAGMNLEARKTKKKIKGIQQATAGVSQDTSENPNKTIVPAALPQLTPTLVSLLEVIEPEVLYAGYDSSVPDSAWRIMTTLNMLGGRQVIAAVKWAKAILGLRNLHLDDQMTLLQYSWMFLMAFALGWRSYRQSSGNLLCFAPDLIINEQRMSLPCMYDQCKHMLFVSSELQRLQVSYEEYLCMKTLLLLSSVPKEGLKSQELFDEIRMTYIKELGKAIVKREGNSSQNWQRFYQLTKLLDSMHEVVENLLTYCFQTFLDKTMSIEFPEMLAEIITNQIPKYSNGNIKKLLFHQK
The experiment is described as follows: Affinity to rat liver glucocorticoid receptors (method of Baxter et al.). The format is binding. The source says: A. Munck and K. Leung: "Receptors and Mechanism of Action of Steroid Hormones", Ed.

Experiment [2] has as its system granuloma pouch. The experiment is described as follows: Local pouch test according to Selye (local antiphlogistic effect). The format is in vivo. The text has this: (§1) Local antiphlogistic effect
(a) Local pouch test according to Selye [Bianchetti et al.: Arzneim. Forsch. 27, 2096 (1977)]

In experiment [3] the test system is carrageenin-induced planter oedema. The experiment is described as follows: Inhibition of carrageenin-induced planter oedema (systemic antiphlogistic effect). The experiment is classed as in vivo. The text has this:
(§2) Systemic antiphlogistic effect
(a) Inhibition of carrageenin-induced planter oedema [Winter et al.: J. Pharm. Exp. Therap. […]]
(Carrageenan injected into the paw causes an acute inflammation.)

Experiment [4] relates to granuloma pouch. The experiment is described as follows: Granuloma pouch test according to Selye (systemic antiphlogistic effect). The format is in vivo.
Text: as §2
(b) Granuloma pouch test according to Selye [J. Selye: Recent Progr. Horm. Res. 8, 117 (1953)]

Experiment [5] deals with thymus weight. The experiment is described as follows: Thymus involution (reduction of thymus weight) in rats. The experiment is classed as in vivo. The protocol: (§3) It is known that glucocorticoids cause thymus involution [O. Greengard, R. Machovich: "Hydrocortisone Regulation of Thymidine Kinase in Thymus Involution and Hematopoietic Tissues", Biochem. Biophys. Acta 286, 382-388 (1972)], 50% reduction of thymus weight was observed on chickens with a dose of 0.01 mg/100 g and on rats with a dose of 0.001 mg/100 g for both TCA and 3-chloro-TCA.

Experiment [6] deals with cotton granuloma. The experiment is described as follows: Cotton granuloma test (systemic antiphlogistic effect). The experiment is classed as in vivo.
Text: as §2
(c) Cotton granuloma test [C. A. Winter et al: J. Pharm. Exp. Therap. 141, 369 (1963)]

Experiment [7] relates to ear inflammation provoked by croton oil. The experiment is described as follows: Inhibition of ear inflammation provoked by croton oil (local antiphlogistic effect). The experiment is classed as in vivo.
Text: as §1
(c) Inhibition of ear inflammation provoked by croton oil [Tonelli et al.: Endocrinology 77, 625 (1965)]

Experiment [8] has as its system thymus weight. The experiment is described as follows: Thymus involution (reduction of thymus weight) in chickens. The experiment is classed as in vivo. As for the experimental part: as §3
Experiment [9] has as its system cotton granuloma. The experiment is described as follows: Local cotton granuloma test (local antiphlogistic effect). The experiment is classed as in vivo.
Text: as §1
(b) Local cotton granuloma test [B. Silvestrini: Arzneim. Forsch. 19, 30 (1969)]

The target in experiment [10] is T1, rat liver glucocorticoid receptors. Conditions: on the basis of literature data (Munck and Leung); read-out: apparent dissociation constant; cited from earlier work.
Setting [11] is: rat liver glucocorticoid receptors, read-out: apparent dissociation constant.

In the case of `CC1(C)O[C@@H]2C[C@H]3[C@@H]4CC(Br)=C5C=C(Cl)C=C[C@]5(C)[C@@]4(F)[C@@H](O)C[C@]3(C)[C@]2(C(=O)CO)O1` [3-chloro-6-bromo-TCA, 3-chloro-6-bromo-9α-fluoro-11β,16α,17α,21-tetrahydroxy-pregna-1,3,5-triene-20-one-16,17-acetonide], the Kd in experiment [1] (setting [11]) turned out to be 60 nM.

As to `CC1(C)O[C@@H]2C[C@H]3[C@@H]4CC=C5C=C(Cl)C=C[C@]5(C)[C@@]4(F)[C@@H](O)C[C@]3(C)[C@]2(C(=O)CO)O1` [Example 3-Chloro-TCA, 3-chloro-9α-fluoro-11β,16α,17α,21-tetrahydroxy-pregna-1,3,5-triene-20-one-16,17-acetonide], the Inhibition % in the experiment with granuloma pouch [2] (0.033 mg/pouch) worked out at 26.0%; in the experiment on granuloma pouch [2] (0.10 mg/pouch), 32.3%; in [3] (2 mg/kg p.o.), 30.2%; in [3] (6 mg/kg p.o.), 38.7%; with granuloma pouch [4] (0.5 mg/kg s.c.) it was 90.8%; with granuloma pouch [4] (1.5 mg/kg s.c.), 90.1%. The Inhibition % in the experiment with cotton granuloma [6] (0.5 mg/kg s.c.) is listed as 22.0%; in the experiment on cotton granuloma [6] (1.5 mg/kg s.c.), 26.0%; in [7] (0.02 mg/ml), 30.0%; in [7] (0.10 mg/ml), 52.9%; in the experiment on cotton granuloma [9] (0.033 mg/cotton) it was 24.1%; in the experiment on cotton granuloma [9] (0.10 mg/cotton) it was 51.4%. The Kd in experiment [1] (setting [11]) was 30 nM. Moreover, the “dose giving 50% reduction of thymus weight” value came out at 0.001 mg/100 g with thymus weight [5] and 0.01 mg/100 g with thymus weight [8].

Turning to `CC1(C)O[C@@H]2C[C@H]3[C@@H]4CCC5=CC(=O)C=C[C@]5(C)[C@@]4(F)[C@@H](O)C[C@]3(C)[C@]2(C(=O)CO)O1` [TCA, 9α-fluoro-11β,16α,17α,21-tetrahydroxy-pregna-1,4-diene-3,20-dione-16,17-acetonide, reference compound], the “dose giving 50% reduction of thymus weight” value with thymus weight [5] was 0.001 mg/100 g; in the experiment with thymus weight [8] it was 0.01 mg/100 g. In addition, in experiment [10], the Kd was 10 nM.

Take `CC(=O)OCC(=O)[C@@]12OC(C)(C)O[C@@H]1C[C@H]1[C@@H]3CC=C4C=C(Cl)C=C[C@]4(C)[C@@]3(F)[C@@H](O)C[C@@]12C` [3-Chloro-TCA-21-acetate, 3-chloro-9α-fluoro-11β,16α,17α,21-tetrahydroxy-pregna-1,3,5-triene-20-one-16,17-acetonide-21-acetate]: the Inhibition % worked out at 12.4% in the experiment on granuloma pouch [2] (0.033 mg/pouch); 26.3% with granuloma pouch [2] (0.10 mg/pouch); 8.9% in experiment [3] (2 mg/kg p.o.); 9.6% in experiment [3] (6 mg/kg p.o.); 56.6% with granuloma pouch [4] (0.5 mg/kg s.c.); 73.3% in the experiment with granuloma pouch [4] (1.5 mg/kg s.c.). Also, the Inhibition % with cotton granuloma [6] (0.5 mg/kg s.c.) worked out at 33.0%; in the experiment with cotton granuloma [6] (1.5 mg/kg s.c.) it was 91.0%; in experiment [7] (0.02 mg/ml), 10.0%; in experiment [7] (0.10 mg/ml) it was 17.8%; in the experiment on cotton granuloma [9] (0.033 mg/cotton), 52.4%; with cotton granuloma [9] (0.10 mg/cotton) it was 35.3%.

The molecule `CC1(C)O[C@@H]2C[C@H]3[C@@H]4C[C@H](F)C5=CC(=O)C=C[C@]5(C)[C@@]4(F)[C@@H](O)C[C@]3(C)[C@]2(C(=O)CO)O1` [fluocinolon-acetonide, 6α,9α-difluoro-11β,16α,17α,21-tetrahydro-pregna-1,4-diene-3,20-dione-16,17-acetonide, reference compound] came in with a Kd in [1] of 15 nM.

As for `CC1(C)O[C@@H]2C[C@H]3[C@@H]4CC(F)=C5C=C(Cl)C=C[C@]5(C)[C@@]4(F)[C@@H](O)C[C@]3(C)[C@]2(C(=O)CO)O1` [Example 3-chloro-FCA, 3-chloro-6,9α-difluoro-11β,16α,17α,21-tetrahydroxy-pregna-1,3,5-triene-20-one-16,17-acetonide], in experiment [1] (setting [11]), the Kd is 25 nM.
